Data set [1] has as its target T1, GlyT1b (hGlyT1b; Flag-Glyt1b) (Homo sapiens, UniProt P48067).
T1 sequence (P48067 15-652 isoform P48067-3): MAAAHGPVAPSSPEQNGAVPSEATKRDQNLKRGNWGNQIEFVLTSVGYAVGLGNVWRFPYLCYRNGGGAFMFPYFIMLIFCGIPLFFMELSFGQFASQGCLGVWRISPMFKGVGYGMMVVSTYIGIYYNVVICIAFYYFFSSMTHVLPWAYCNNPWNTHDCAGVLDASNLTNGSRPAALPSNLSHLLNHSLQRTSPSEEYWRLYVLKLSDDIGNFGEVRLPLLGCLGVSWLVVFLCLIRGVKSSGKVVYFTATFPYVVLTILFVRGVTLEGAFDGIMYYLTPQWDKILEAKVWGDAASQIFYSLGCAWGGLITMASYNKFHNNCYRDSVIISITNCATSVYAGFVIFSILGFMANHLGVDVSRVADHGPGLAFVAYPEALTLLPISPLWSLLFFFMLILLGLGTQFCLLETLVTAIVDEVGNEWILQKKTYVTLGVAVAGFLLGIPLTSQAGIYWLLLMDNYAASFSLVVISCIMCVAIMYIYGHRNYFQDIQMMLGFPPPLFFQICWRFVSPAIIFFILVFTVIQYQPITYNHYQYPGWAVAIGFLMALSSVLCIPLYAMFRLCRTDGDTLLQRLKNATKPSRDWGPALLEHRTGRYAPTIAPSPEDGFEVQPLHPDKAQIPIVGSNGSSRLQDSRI
Put plainly: displacement of […] [3H]CHIBA-3007, membrane filtration assay. It is filed as binding. To be noted: 150 mM NaCl, 10 mM HEPES pH 7.4, RT.

Substrate in data set [2]: NCC(=O)O
Put plainly: [3H]glycine uptake into transfected HEK MSR cells. In kind it is cell-based, Homo sapiens. Particulars: 0.05-200 µM glycine.

`NCC(=O)O` [glycine] gave a KI in data set [1] of 330 ± 10 µM.

B1: GlyT1b (hGlyT1b; Flag-Glyt1b) (Homo sapiens) (protein)
chain: MAAAHGPVAPSSPEQNGAVPSEATKRDQNLKRGNWGNQIEFVLTSVGYAVGLGNVWRFPYLCYRNGGGAFMFPYFIMLIFCGIPLFFMELSFGQFASQGCLGVWRISPMFKGVGYGMMVVSTYIGIYYNVVICIAFYYFFSSMTHVLPWAYCNNPWNTHDCAGVLDASNLTNGSRPAALPSNLSHLLNHSLQRTSPSEEYWRLYVLKLSDDIGNFGEVRLPLLGCLGVSWLVVFLCLIRGVKSSGKVVYFTATFPYVVLTILFVRGVTLEGAFDGIMYYLTPQWDKILEAKVWGDAASQIFYSLGCAWGGLITMASYNKFHNNCYRDSVIISITNCATSVYAGFVIFSILGFMANHLGVDVSRVADHGPGLAFVAYPEALTLLPISPLWSLLFFFMLILLGLGTQFCLLETLVTAIVDEVGNEWILQKKTYVTLGVAVAGFLLGIPLTSQAGIYWLLLMDNYAASFSLVVISCIMCVAIMYIYGHRNYFQDIQMMLGFPPPLFFQICWRFVSPAIIFFILVFTVIQYQPITYNHYQYPGWAVAIGFLMALSSVLCIPLYAMFRLCRTDGDTLLQRLKNATKPSRDWGPALLEHRTGRYAPTIAPSPEDGFEVQPLHPDKAQIPIVGSNGSSRLQDSRI
Take B1: the Km (in general, the concentration of substrate that gives half-maximal velocity) in data set [2] was 35.2 ± 2.1 µM.

The values are drawn from article doi:10.1101/2020.08.20.259572v2 (biorxiv, 2020).
